Measured values taken from ChEMBL document CHEMBL3861964, “Bioassay-Guided Isolation of Prenylated Xanthone Derivatives from the Leaves of Garcinia oligantha” (J Nat Prod, 2016).

Columns and labels:
[1] = Cytotoxicity against human HepG2 cells assessed as reduction in cell viability after 72 hrs by MTT assay; type: functional, cell-based; conditions: HepG2, 72 h
[2] = cells; conditions: Homo sapiens, HT-29, 72 h
Description: Cytotoxicity against human HT-29 cells assessed as reduction in cell viability after 72 hrs by MTT assay

[3] = Cytotoxicity against human A549 cells assessed as reduction in cell viability after 72 hrs by MTT assay; type: functional, cell-based; conditions: A549, 72 h
[4] = Cytotoxicity against human PC3 cells assessed as reduction in cell viability after 72 hrs by MTT assay; type: functional, cell-based; conditions: PC-3, 72 h
[5] = Cytotoxicity against human HL-7702 cells assessed as reduction in cell viability after 72 hrs by MTT assay; type: toxicity, cell-based, L02

Row | SMILES | IC50 [1] [µM] | IC50 [2] [µM] | IC50 [3] [µM] | IC50 [4] [µM] | IC50 at 72 h [5] [µM]
1 | CC(C)=CCC/C(C)=C/C[C@]1(C(=O)O)CC(=C(C)C)C(=O)c2oc3c(CC=C(C)C)c(O)cc(O)c3c(=O)c21 | > 10 | > 10 | > 10 | > 10 | –
2 | CC(C)=CCc1c(O)c(O)c(O)c2oc3c4c(cc(O)c3c(=O)c12)OC(C)(C)C=C4 | > 10 | > 10 | > 10 | > 10 | –
3 | CC(=O)O[C@H]1C(=O)[C@@]2(C)[C@H]([C@H](OC(=O)c3ccccc3)[C@]3(O)C[C@H](OC(=O)[C@H](O)[C@@H](NC(=O)c4ccccc4)c4ccccc4)C(C)=C1C3(C)C)[C@]1(OC(C)=O)CO[C@@H]1C[C@@H]2O [PACLITAXEL] | 0.2 | – | 0.08 | 0.03 | 0.06
4 | C=C(C)[C@H]1C[C@](C/C=C(\C)CCC=C(C)C)(C(=O)O)c2c(oc3c(CC=C(C)C)c(O)cc(O)c3c2=O)[C@@H]1O | > 10 | > 10 | > 10 | > 10 | –
5 | CO[C@@]12C=C3C(=O)c4c(O)cc5c(c4O[C@@]34[C@@H]1C(C)(C)O[C@@]4(CC=C(C)C)C2=O)C=CC(C)(C)O5 | 4.5 | 4.8 | 3.9 | 4.6 | 8.6
6 | CC(C)=CCC1(CC=C(C)C)C(=O)C(O)=C(O)c2oc3c4c(cc(O)c3c(=O)c21)OC(C)(C)C=C4 | 6.2 | 4.1 | 5.5 | 3.2 | 6.4
7 | CC(C)=CCc1c(O)cc(O)c2c(=O)c3c(oc12)C(CC=C(C)C)(CC=C(C)C)C(=O)C(O)=C3 | > 10 | > 10 | > 10 | > 10 | –
8 | CO[C@]12C=C3C(=O)c4c(O)cc(O)c(CC=C(C)C)c4O[C@]34C(C1)C(C)(C)O[C@]4(CC=C(C)C)C2=O | 2.8 | 2.2 | 3 | 2.1 | 2.5
9 | CC(C)=CCC1=C(O)C(=O)C(CC=C(C)C)(CC=C(C)C)c2c1oc1cc(O)cc(O)c1c2=O | > 10 | > 10 | > 10 | > 10 | –
10 | CC(C)=CCC1(C(=O)O)CC(=C(C)C)C(=O)c2oc3c4c(cc(O)c3c(=O)c21)OC(C)(C)C=C4 (racemic) | > 10 | > 10 | > 10 | > 10 | –
11 | CO[C@]12C=C3C(=O)c4c(O)c(CC=C(C)C)c(O)c(CC=C(C)C)c4O[C@]34C(C1)C(C)(C)O[C@]4(CC=C(C)C)C2=O | 2.9 | 2.3 | 2.9 | 2.3 | 3.1
12 | CC(C)=CCC/C(C)=C/C[C@@]1(CC=C(C)C)C(=O)C(O)=C(O)c2oc3c4c(cc(O)c3c(=O)c21)OC(C)(C)C=C4 | > 10 | 6.4 | 5 | 5.9 | > 10
13 | CC(C)=CCc1cc(C(C)C)c(O)c2oc3c4c(cc(O)c3c(=O)c12)OC(C)(C)C=C4 | > 10 | > 10 | > 10 | > 10 | –
